Assay results reported in US20250082605A1 (priority 2016, published 2025).

What was measured:
rats with induced CHF [1] = test: End-systolic and end diastolic pressure volume relationship in CHF rats; assay type: in vivo, rat
From the text: In each case, administration of vehicle or RTX and vehicle was epidural.
In each case, administration of vehicle or RTX and vehicle was epidural. […] Both significance measures were at the P<0.05 level.
(§1) The following Examples 1 through 9 discuss data from rats with induced CHF. The Examples show many improved indicators associated with RTX treatment in CHF subjects. The rat models provide for comparison of epidural administration of RTX against epicardial administration of RTX and against various controls. For the epicardial data, RTX was administered directly to the epicardium by swab during open surgery contemporaneously with induced myocardial infarction (coronary artery ligation).
(§2) For epidural application of RTX, a small midline incision was made in the region of the T13-L1 thoracic vertebrae. Following dissection of the superficial muscles, two small holes (approximately 2 mm by 2 mm) were made in the left and right sides of the T13 vertebra. A polyethylene catheter (PE-10) was inserted into the […] via the left hole and gently advanced about 5.5-6 cm to the left T1 level at which the first injection (6 μg/mL, 10 μL) was made at a very slow speed to minimize the diffusion of RTX. Then the catheter was pulled back about 0.5 cm to left T2, T3, and T4, respectively, to perform serial injections (10 μL each) in each segment. Then the catheter was withdrawn and the same injection was repeated on the right side. A silicone gel was used to seal the hole in the T13 vertebra. The skin overlying the muscle was closed with a 3-0 polypropylene suture. Simple interrupted sutures were used to close the skin.
In each case, administration of vehicle or RTX and vehicle was epidural. […] CHF corresponds to a reduction in ESPVR, with appeared unaffected by epidural RTX.

TRPV1 afferents = test: Immunofluorescence study for TRPV1 afferents after L2-L5 RTX administration; assay type: in vivo, rat
From the text: Additionally, an immunofluorescence study for TRPV1 afferents was made following administration at the L2-L5 levels. […] Within the T1-T5 levels, no reduction in TRPV1 afferents was shown following the L2-L5 injection. Within the heart, TRPV1 fluorescence remained on the surfaces of the myocardium and within the cardiac tissue.

hypertensive rat = details: in vivo
rats with induced CHF [2] = test: Long-term survival of rats with induced CHF over 28 weeks; assay type: in vivo, rat
Description: as §1, §2
FIG. 7 depicts the survival rate of rats with induced chronic heart failure with and without RTX treatment. In FIG. 7A, the treatment was epicardial. In FIG. 7B the treatment was epidural. […] In particular, without RTX treatment, seven of ten rats died during the 28-week period. But only two of nine rats with RTX treatment died during the same period.

C fiber afferents = test: Staining of the dorsal horn of the spinal cord at T2 for TRPV1, Substance P and IB4; assay type: in vivo, rat
Description: as §2
Neurons in the dorsal horn of the spinal cord that express SP were ablated by RTX. IB4 is an indicator of small diameter afferent nerves and SP is an indicator of neuroinflammation.

[3] = system: rats with induced chronic heart failure (CHF); test: Cardiac function in rats with induced chronic heart failure; assay type: in vivo, Sprague-Dawley rats
Description: Both significance measures were at the P<0.05 level.
as §1, §2
The experimental data included: body weight, heart weight, the ratio of heart weight to body weight (HW/BW), the ratio of wet lung weight to body weight (WLW/BW), the left ventricle end systolic pressure (LVESP), the left ventricle end diastolic pressure (LVEDP), maximum first derivative of left ventricular pressure (dp/dtmax), the minimum first derivative of left ventricular pressure (dp/dtmin), and infarct size. […] Both significance measures were at the P<0.05 level. […] The columns titled “Sham+vehicle” and “Sham+RTX” provide a comparison for sham rats without induced chronic heart failure, and without and with, respectively, epidural RTX treatment.
The experimental data included: body weight, heart weight, the ratio of heart weight to body weight (HW/BW), the ratio of wet lung weight to body weight (WLW/BW), mean arterial pressure (MAP), the left ventricle end diastolic pressure (LVEDP), heart rate, the maximum first derivative of left ventricular pressure (dp/dtmax), the minimum first derivative of left ventricular pressure (dp/dtmin), and infarct size. […] Both significance measures were at the P<0.05 level.

TRPV1 = TRPV1 (Rattus norvegicus, UniProt O35433); test: Isolectin B4 (IB4) and TRPV1 expression in DRG neurons after epidural RTX; assay type: in vivo; parameters: from tissue; host or cells: rat dorsal root ganglion (DRG) neurons; details: epidural RTX vs vehicle-only, FIG. 3A
Chain of TRPV1 (O35433 whole entry): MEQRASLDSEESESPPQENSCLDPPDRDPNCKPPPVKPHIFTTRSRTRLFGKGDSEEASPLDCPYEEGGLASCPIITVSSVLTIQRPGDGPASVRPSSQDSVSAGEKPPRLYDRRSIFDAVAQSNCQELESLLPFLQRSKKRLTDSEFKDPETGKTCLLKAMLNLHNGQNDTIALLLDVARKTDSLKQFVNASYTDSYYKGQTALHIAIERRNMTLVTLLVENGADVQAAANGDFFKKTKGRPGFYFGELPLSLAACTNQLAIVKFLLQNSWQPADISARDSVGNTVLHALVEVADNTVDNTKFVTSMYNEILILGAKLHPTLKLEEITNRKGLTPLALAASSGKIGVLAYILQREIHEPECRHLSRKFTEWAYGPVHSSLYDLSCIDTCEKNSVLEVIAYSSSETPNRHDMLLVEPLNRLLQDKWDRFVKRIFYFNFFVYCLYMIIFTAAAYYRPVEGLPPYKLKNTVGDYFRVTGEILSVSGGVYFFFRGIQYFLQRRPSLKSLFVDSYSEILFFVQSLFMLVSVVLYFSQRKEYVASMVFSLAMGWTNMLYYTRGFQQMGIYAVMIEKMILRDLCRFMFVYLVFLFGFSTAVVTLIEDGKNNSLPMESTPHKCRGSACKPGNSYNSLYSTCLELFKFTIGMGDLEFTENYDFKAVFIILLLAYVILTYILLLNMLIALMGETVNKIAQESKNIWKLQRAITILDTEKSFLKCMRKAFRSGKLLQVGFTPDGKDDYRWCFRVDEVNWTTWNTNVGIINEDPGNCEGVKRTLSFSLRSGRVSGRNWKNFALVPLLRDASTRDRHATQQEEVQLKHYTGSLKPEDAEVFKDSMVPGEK
Description: as §2
(§3) FIGS. 3A-4B show experimental results for a rat study in accordance with an embodiment of the present application.

[4] = system: cardiac sympathetic afferent reflex (CSAR); test: Response to activation of the CSAR (MAP, RSNA) over 26 weeks after epidural or epicardial RTX; assay type: in vivo, rat
Description: as §1, §2, §3

[5] = system: established hypertensive rat model; test: MAP and heart rate in established hypertensive rats after lumbar (L2-L5) RTX administration; assay type: in vivo
Description: Blood pressure measurements are 8 hours average per day.
Example 12 describes an experiment in which RTX administration was made to the lumbar region of a rat population (L2-L5).
Blood pressure continued to increase above the pre-injection baseline level by the end of the study period.

[6] = epidural RTX at T1-T4 DRG levels
[7] = CHF + epidural RTX vs CHF + vehicle, P<0.05
[8] = epidural RTX vs vehicle, weeks 1, 5-6, 9-11, 24-26, FIG. 3B

## C=C(C)[C@]12C[C@@H](C)[C@@]34O[C@](Cc5ccccc5)(O[C@@H]1[C@@H]3C=C(COC(=O)Cc1ccc(O)c(OC)c1)C[C@]1(O)C(=O)C(C)=C[C@@H]41)O2 [RTX, resiniferatoxin]
Rats with induced CHF [1]; CHF + epidural RTX vs population without CHF
  end diastolic pressure volume relationship (EDPVR), difference: not statistically significant
Rats with induced CHF [1]; CHF + epidural RTX vs untreated CHF
  end diastolic pressure volume relationship (EDPVR): statistically significantly less
Rats with induced CHF [1]; epidural RTX
  end-systolic pressure volume relationship (ESPVR), CHF-related reduction: unaffected
TRPV1 afferents
  TRPV1 afferents in DRG neurons, L2-L5 levels: elimination of most TRPV1 afferents
  TRPV1 afferents, L1 level: many TRPV1 afferents remained
  TRPV1 afferents, T1-T5 levels: no reduction
  TRPV1 fluorescence in the heart (surfaces of the myocardium and cardiac tissue): remained
Hypertensive rat
  ABP, MAP and heart rate following injection: substantial short term increases
  average short-term increase in MAP over baseline: about 30 mmHg
  duration of transient increase in blood pressure, heart rate, or both: about five or ten
Rats with induced CHF [2]; 28 weeks
  survival improvement, epidural versus epicardial treatment: roughly comparable improvement
Rats with induced CHF [2]; epidural RTX at T1-T4, n=9 (without RTX seven of ten)
  rats that died during the 28-week period: two of nine
Rats with induced CHF [2]; epidural RTX vs no RTX, 28 weeks
  long-term survival rate: significantly higher
C fiber afferents; dorsal horn at T2, RTX vs control, FIG. 4
  expression of TRPV1 protein: reduced expression
C fiber afferents; [6]
  ablation of SP-containing C fiber afferents (peptidergic) projecting to the dorsal horn: ablated almost all
  ablation of isolectin B4 (IB4)-positive C fiber afferents (non-peptidergic) projecting to the dorsal horn: a large portion
[3]; CHF + epidural RTX (CHF + vehicle: 380%)
  left ventricle end diastolic pressure, increase over sham: 60%
[3]; CHF + epidural RTX vs CHF + vehicle
  infarct size, difference: not being statistically significant
[3]; [7]
  heart weight: statistically significantly better
  heart weight as a percentage of body weight: statistically significantly better
  left ventricle end diastolic pressure: statistically significantly better
  minimum first derivative of left ventricular pressure (dp/dtmin): statistically significantly better
  wet lung weight as a percentage of body weight: statistically significantly better
[3]; FIG. 5 column D vs FIG. 6 column H
  cardiac function results, epidural versus epicardial administration: comparable to the results achieved by epicardial administration, or are in some cases better
TRPV1
  isolectin B4 (IB4) and TRPV1 expression in DRG neurons: reduction
[4]; epicardial RTX administration
  duration of cardiac sympathetic afferent ablation: 3-4 months
[4]; [8]
  mean arterial pressure (MAP) response to activation of the CSAR: substantial decrease
  renal sympathetic nerve activity (RSNA) response to activation of the CSAR: substantial decrease
[5]; RTX L2-L5
  heart rate following RTX injection: increase in heart rate
[5]; RTX L2-L5, after injection
  time over which heart rate increase subsides: 2 to 10 days
[5]; RTX L2-L5, after treatment
  time at which MAP returned to the pre-injection baseline: 15 to 20 days
[5]; RTX L2-L5, established hypertensive rats
  MAP following lumbar injection: reduced immediately
[5]; RTX to lumbar region L2-L5
  sustained treatment of hypertension: does not achieve the sustained treatment of hypertension
